Patent publication US10995101B2, “2-oxo-thiazole derivatives as A2A inhibitors and compounds for use in the treatment of cancers” (iTeos Therapeutics SA, priority 2017, dated 2021)
pIC50: −log10 of the molar value. Values joined by “and” are separate entries in the source; they are usually repeats but may differ in a detail not shown here. Identical values can stand only once. Like-named read-outs stand apart in the source and are kept apart here.

Assays:
A2A receptor [1] = molecular target: T1, A2A receptor (Homo sapiens, UniProt P29274); assay: Inhibition of cAMP production in HEK cells; assay type: cell-based; settings: HEK-293 cells with A2A receptor
[2] = Concentration in brain and cerebrospinal fluid compared to plasma; assay type: in vivo, mice; settings: for concentration at 0.5 h / Kp at 0.5 h / plasma concentration at 0.5 h: female, Balb-c, mouse, po; for plasma concentration at 0.5 h: Plasma Concentration (ng/mL)
Protocol: 7-9 weeks old female Balb-c mice (obtained from SLAC Laboratory Animal Co. Ltd., Shanghai, China or SIPPR-B&K Laboratory Animal Co. Ltd., Shanghai, China) were dosed orally at a dose of 10 mg/kg, as a 1.00 mg/mL suspension in 10% DMSO+10% solutol+80% water, adjusted to pH 3-4 (homogenous opaque suspension).
Animals were fasted at least 12 hours prior to the administration. All animals had access to Certified Rodent Diet (Catalog # M01-F, SLAC Laboratory Animal Cl. Ltd., Shanghai, China) ad libitum 4 hours post dosing. Serial bleeding (about 30 μL blood per time point) were performed from submadibular or saphenous vein. Those samples were transferred into prechilled microcentrifuge tubes containing 2 μL of K2EDTA (0.5M) as anti-coagulant and placed on wet ice for further treatment. Immediately after blood collection, the whole brain was harvested immediately at the designed time points. At selected timepoints post-dose, CSF was collected from cisterna magna.
Blood samples were processed for plasma by centrifugation at approximately 4° C., 3000 g 15 min within half an hour of collection. Plasma samples were stored in polypropylene tubes, quick frozen over dry ice and kept at −70° C. until LC/MS/MS analysis. Brain samples were weighed, rinsed in cold distilled water to remove blood, and homogenized using pre-cooled water at the ratio of 1:4 (1 g brain used 4 mL water). And the brain homogenization was kept at −70° C. until LC/MSMS analysis. CSF was quick frozen over dry ice and kept at −70° C. until LC/MS/MS analysis.

A2AR = A2AR (Mus musculus, UniProt Q60613); settings: 10 mg/kg PO 30 min prior to CGS21680; score observed in at least 60-100% of mice for 30 minutes
in vitro = settings: human, Caco-2, pH 7.4
Protocol: 2 μM dosing solutions for reference compounds and test compounds are prepared by spiking the appropriate volume of intermediate solution to TB with and without 1 μM Zosuquidar. The final concentration of DMSO is no more than 1% (v/v).
Caco-2 cells are grown in MEM supplemented with 2 mM L-glutamine, 10% FBS, 100 U/mL penicillin-G and 100 μg/mL streptomycin. The cells are incubated at 37° C., 5% CO2 and relatively saturated humidity. After reaching 80-90% confluency, the cells are gently detached with 0.05% trypsin-EDTA solution.
TB and dosing solutions were pre-warmed to 37° C. before transport assay. The cell monolayer was washed twice with HBSS containing 10 mM HEPES. For A-B (apical to basolateral) directional transport assay, 75 μL dosing solution is added to the apical well. Fill each basolateral well with 250 μL TB. For B-A (basolateral to apical) directional transport assay, 250 μL of dosing solution is added to the basolateral well after filling each apical well with 75 μL TB. […] The plates are incubated for 120 minutes at 37° C. with 5% CO2 and saturated humidity. The time zero samples are generated by mixing 50 μL initial dosing solution of test compound or reference compound with 100 μL TB and 250 μL quench solution (acetonitrile (ACN) or other appropriate solvent with internal standard(s), based on the bioanalytical method development). At 120 minutes, 150 μL of solution is collected from each A-B receiver well followed by addition of 250 μL quench solution to get A-B receiver sample. And for other samples (A-B donor, B-A donor and receiver), 50 μL of solution is collected from each corresponding well followed by addition of 250 μL quench solution and 100 μL TB. All samples are vortex-mixed and centrifuged at 3220 g for 20 minutes. Subsequently, supernatant is diluted with ultra pure water for LC-MS/MS analysis. The concentrations of test compound in all samples are determined by LC-MS/MS and expressed as peak area ratio of analyte to internal standard.
The concentration of samples is expressed using the peak area ratio of Analyte to Internal Standard (Analyte/IS).
The efflux ratio is calculated using the following equation: Efflux ratio=Papp(A−B)/Papp(B−A) • where Papp (A−B) and Papp (B−A) are the Papp values of compound in Apical to Basolateral and Basolateral to Apical directional transport, respectively.

A2A receptor [3] = molecular target: T1, A2A receptor; assay: Modulation of pCREB in human immune cells; assay type: cell-based; parameters: endogenous in cells; host or cells: human CD3+ T cells isolated from venous blood of healthy volunteers; settings: read-out: IC50 of pCREB inhibition
Protocol: The A2A receptor is known to mediate CREB phosphorylation.
Venous blood from healthy volunteers, all of whom signed an informed consent approved by the Ethics Committee (FOR-UIC-BV-050-01-01 ICF_HBS_HD Version 5.0), was obtained via ImmuneHealth (Centre Hospitalier Universitaire Tivoli, La Louviere, Belgium). […] All dilutions were prepared in RPMI1640 medium (with UltraGlutamine; Lonza, Verviers, Belgium), and cells were incubated with compounds in a 37° C. humidified tissue culture incubator with 5% CO2. After stimulation, cells were fixed and permeabilized, followed by intracellular staining using mouse anti-human pCREB antibodies (Clone J151-21; BD Biosciences) at room temperature. Data were acquired using an LSRFortessa flow cytometer (BD Biosciences) and analyzed using FlowJo software (FlowJo, LLC, Ashland, Oreg.).

[4] = individual mice, PO 10 mg/kg, 0.500 h, 10 mg/kg

T1 sequence (P29274 whole entry): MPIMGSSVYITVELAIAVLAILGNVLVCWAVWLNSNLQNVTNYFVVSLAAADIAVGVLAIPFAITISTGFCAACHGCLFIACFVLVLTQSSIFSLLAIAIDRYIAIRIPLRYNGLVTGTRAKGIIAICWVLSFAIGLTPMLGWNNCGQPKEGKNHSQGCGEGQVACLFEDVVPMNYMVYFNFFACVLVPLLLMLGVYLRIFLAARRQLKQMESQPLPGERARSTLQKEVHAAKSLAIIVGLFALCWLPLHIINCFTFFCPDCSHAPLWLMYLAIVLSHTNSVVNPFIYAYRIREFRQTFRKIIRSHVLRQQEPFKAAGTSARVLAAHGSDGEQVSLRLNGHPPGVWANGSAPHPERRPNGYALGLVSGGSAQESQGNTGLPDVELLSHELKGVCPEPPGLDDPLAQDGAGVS
A2AR, sequence (Q60613 whole entry): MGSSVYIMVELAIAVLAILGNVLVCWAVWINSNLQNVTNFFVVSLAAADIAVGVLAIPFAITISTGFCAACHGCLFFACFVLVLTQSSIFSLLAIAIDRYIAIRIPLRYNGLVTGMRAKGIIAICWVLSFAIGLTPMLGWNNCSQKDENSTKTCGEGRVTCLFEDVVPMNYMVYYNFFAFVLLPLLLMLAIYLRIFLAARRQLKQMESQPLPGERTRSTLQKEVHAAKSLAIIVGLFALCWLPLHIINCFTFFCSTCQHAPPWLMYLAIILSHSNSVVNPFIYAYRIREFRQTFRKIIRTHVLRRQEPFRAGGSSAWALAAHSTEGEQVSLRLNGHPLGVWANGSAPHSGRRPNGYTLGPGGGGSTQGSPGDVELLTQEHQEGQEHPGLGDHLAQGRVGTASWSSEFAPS

## NC(=O)COc1cc(N2CCN(CCn3c(=O)sc4c3nc(N)n3nc(-c5ccco5)nc43)CC2)c(F)cc1F [Compound 4, 2-(5-(4-(2-(5-amino-8-(furan-2-yl)-2-oxothiazolo[5,4-e][1,2,4]triazolo [1,5-c]pyrimidin-3(2H)-yl)ethyl)piperazin-1-yl)-2,4-difluorophenoxy)acetamide]
A2A receptor [1]; IC50 (nM) (3 nM NECA as agonist, 0.1% BSA), 3 nM NECA as agonist, 0.1% BSA
  IC50: 0.5 nM
A2A receptor [1]; IC50 (nM) (5 nM NECA as agonist, 2% HSA), 5 nM NECA as agonist, 2% HSA
  IC50: 2 nM
A2A receptor [1]; IC50 (nM) (5 μM Adenosine as agonist, 2.0% HSA), 5 μM Adenosine as agonist, 2.0% HSA
  IC50: 49 nM
[2]; CSF, 10 mg/kg, individual mice, PO 10 mg/kg, 0.500 h, read-out: CSF Concentration
  concentration at 0.5 h: < 3 ng/mL
[2]; CSF, 10 mg/kg, individual mice, PO 10 mg/kg, 0.500 h, read-out: CSF/Plasma Ratio
  Kp at 0.5 h: < 0.005
[2]; CSF, 10 mg/kg, mean of 3 mice, PO 10 mg/kg, 0.500 h, read-out: CSF Concentration (ng/mL), Mean
  concentration at 0.5 h: < 3 ng/mL
[2]; CSF, 10 mg/kg, mean of 3 mice, PO 10 mg/kg, 0.500 h, read-out: CSF/Plasma Ratio, Mean
  Kp at 0.5 h: < 0.004
[2]; brain, 10 mg/kg, individual mice, PO 10 mg/kg, 0.500 h, read-out: Brain Concentration
  concentration at 0.5 h: < 15 ng/g
[2]; brain, 10 mg/kg, individual mice, PO 10 mg/kg, 0.500 h, read-out: Brain/Plasma Ratio
  Kp at 0.5 h: < 0.026
[2]; brain, 10 mg/kg, mean of 3 mice, PO 10 mg/kg, 0.500 h, read-out: Brain Concentration (ng/g), Mean
  concentration at 0.5 h: < 16 ng/g
[2]; brain, 10 mg/kg, mean of 3 mice, PO 10 mg/kg, 0.500 h, read-out: Brain/Plasma Ratio, Mean
  Kp at 0.5 h: < 0.021
[2]; 10 mg/kg, Mean, mean of 3 mice, PO 10 mg/kg, 0.500 h
  plasma concentration at 0.5 h: 779 ng/mL
[2]; 10 mg/kg, individual mice, PO 10 mg/kg, 0.500 h, female Balb-c mice
  plasma concentration at 0.5 h: 576 ng/mL
[2]; individual mice, PO 10 mg/kg, 0.500 h
  CSF Concentration: <3 ng/mL
[2]; individual mice, PO 10 mg/kg, 0.500 h, female Balb-c mice, 10 mg/kg
  Plasma Concentration: 995 ng/mL and 765 ng/mL
[2]; [4]
  Brain Concentration: 16.9 ng/g and <15 ng/g
  Brain/Plasma Ratio: 0.0169 and <0.020
  CSF/Plasma Ratio: <0.003 and <0.004
[2]; mice, oral 10 mg/kg
  quantity found in brain or CSF: no measurable quantity
A2AR
  Score (locomotion / immobility): +++
In vitro
  efflux ratio at 120 min, 2 μM: 123
A2A receptor [3]
  pIC50: 7.70
